Assay results reported in patent publication US10942159B2, “Product sustainability scorecard” (Symrise AG, priority 2016, dated 2021).

Experiments:
[1] = Product Sustainability Scorecard: process safety with regard to ecological toxicity (Product EcoTox score from GHS H-phrases and supplier score); conditions: consolidated scorecard score, normalized scale 0 to 100 without dimension
Source text: (§1) Hazard statements form part of the ‘Globally Harmonized System of Classification and Labelling of Chemicals’ (GHS). They are intended to form a set of standardized phrases about the hazards of chemical substances and mixtures.
(§2) H200: Physical Hazards (=Toxicity and Eco Toxicity)
H400: Environmental Hazards (=Eco Toxicity)
(§3) Scheme 4 and 5: Scoring • STEP 1 Evaluation of the ‘(Eco) Toxicity Material Score’ and ‘Critical By-Product Score’ of each reactant and its potential by-products based on the safety according to material properties:
(§4) • STEP 2 Evaluation of the ‘(Eco) Tox Supplier Score’ of each reactant based on process safety according to chemical handling (see appendix for further information):
(§5) • STEP 3 Calculation of the overall ‘(Eco) Tox Score’ of each reactant and the final product. […] If the supplier score is better, it outweighs the material score—following the assumption that a safe and controlled production environment is able to avert the risks of hazardous materials: MAX(‘(Eco) Tox Material Score’;‘(Eco) Tox Supplier Score’)=(Eco) Tox Score • (ii) Composed products: For composed products the (Eco) Tox Score combines the hazard and supplier information of the composed product itself (calculated as above) with the (Eco) Tox Score of its reactants. […]

[2] = Product Sustainability Scorecard: biodegradability score according to OECD Method 301/302; conditions: consolidated scorecard score, scale 0 to 100; score equals % biodegradation after 28-day OECD 301 test
Protocol: Biodegradation is one of the most important factors in assessing the environmental fate of chemicals. Biodegradation is the chemical dissolution of materials by bacteria, fungi, or other biological means. Biodegradability is evaluated according to the OECD Method 301/302 or equivalent. The tests of the OECD test series 301 (A-F) verify whether a substance is able for complete biodegradation under aerobic conditions. Different test methods are available for well or poorly soluble as well as volatile substances. The test usually takes 28 days. Test items must reach 60% biodegradation within 10 days to be classified as ‘ready biodegradable’.
Scheme 1: Scoring • STEP 1 Evaluation of the “Biodegradability Score” of the fragrance raw material based on the following scoring system
The score for biodegradability of the compound or the compounds is evaluated according to OECD Method 301/302 or equivalent.

[3] = Product Sustainability Scorecard: process safety with regard to human toxicity (Product Tox score from GHS H-phrases and supplier score); conditions: consolidated scorecard score, normalized scale 0 to 100 without dimension
Source text: as §1, §2
H300: Health Hazards (=Toxicity)
as §3, §4, §5
The score for the overall human toxicity S(HTOX) is calculated according to the following equation (4): S(HTOX)=⅔*MAX(Ma;Pa)+⅓*(Mb*Cb)+ . . . […]

Substance: 44_Dihydro Myrcenol [44DHM]
- Product EcoTox [1]: 87.73
- Biodegradability [2]: 100.00
- Product Tox [3]: 80.38
